“Also recorded” adds a separate entry of the source.
Test system: aged rats
Assay: Voiding analysis in metabolic cages, aged rats
Assay type: in vivo, rat
Protocol: Experimental design: Young (3 months of age) and aged (25 to 30 months of age) Fisher 344 rats were used in these experiments. Some of the aged Fisher 344 rats were treated with 8-AG (5 mg kg/day via drinking water) for 1 month.
Voiding analysis: Rats were placed in metabolic cages for 24 hr (once per week for the duration of the study). Voided urine was collected in cups attached to force displacement transducers (GRASS TECHNOLOGIES®, Warwick, R.I.) connected to a computer running WINDAQ™ data acquisition software (DATAQ™ Instruments Inc., Akron, Ohio). Data were averaged for 24 h, and voiding frequency, total voided volume, and volume per void were analyzed. Voiding frequency was calculated as the number of voiding events per hour during 24 h, and volume per void, which defines bladder capacity, was calculated as an average of the voids occurring during these periods.
Animals: Male and female Fisher 344 rats were employed (Charles River; Wilmington, Mass. and the NIA rodent colony). Some rats were young (3 months of age), some were aged (25-30 months of age), and others were aged and treated with oral 8-AG (5 mg/kg/day; 6 weeks). Under isoflurane anesthesia and using an aseptic technique, an incision was made into the lower abdomen and in the scapular area. Sterile PE50 tubing was threaded subcutaneously from the lower abdomen to the scapular area and connected to a one-channel vascular access button (Intech Laboratories, Plymouth Meeting, Pa.). In the abdomen, the tubing was inserted into the bladder and secured with a small purse-string suture. The incisions were closed, and the animals were allowed to recover for 7-10 days before further experimentation. Animals were divided into three groups. A control group of aged rats received daily infusions with 10 μM DEA-NONOate (SIGMA-ALDRICH®, St. Louis, Mo.) in sterile 0.9% saline. A second group received 100 μM 8-AG plus 10 μM DEA-NONOate in 0.9% saline, and a third group received 5 μM forodesine (SIGMA-ALDRICH®) plus 10 μM DEA-NONOate in 0.9% saline. Bladders were instilled via a catheter tether kit (Instech Laboratories) connected to a syringe pump for continuous infusion (rate 200 μl/min; 30 minutes/daily) for 3-6 weeks. The Institutional Animal Care and Use Committee approved all procedures. The investigation conforms to the Guide for the Care and Use of Laboratory Animals published by the US National Institutes of Health (NIH Publication No. 85-23, revised 1996).
Protocol 1: Young, aged, and 8-AG-treated aged rats were placed in metabolism cages for 24 hr once per week. The light cycle was from 7:00 AM to 7:00 PM, and food and water were provided ad libitum. Voided urine was collected in cups attached to force displacement transducers (GRASS TECHNOLOGIES®, Warwick, R.I.) that were connected to a computer running Windaq data acquisition software (DATAQ® Instruments I2nc., Akron, Ohio). Data were averaged for 24 h and analyzed for 12-h periods during the day (7:00 AM-7:00 PM) and night (7:00 PM-7:00 AM). Voiding frequency, total voided volume, and volume per void were analyzed. Voiding frequency was calculated as the number of voiding events per hour during 24 h and during the 12-h day and 12-h night periods. Volume per void, which defines bladder capacity, was calculated as an average of the voids occurring during these periods.
Voiding Analysis: Young, aged, and 8-AG-treated aged rats were placed in metabolic cages (24 hr; once per week) for the duration of the study. The light cycle was from 7:00 AM to 7:00 PM, and food and water were provided ad libitum. Voided urine was collected in cups attached to force displacement transducers (Grass Technologies, Warwick, R.I.) connected to a computer (Windaq data acquisition software DATAQ Instruments Inc., Akron, Ohio). Data were averaged for 24 h and analyzed for 12-h periods during the day (7:00 AM-7:00 PM) and night (7:00 PM-7:00 AM). Voiding frequency, total voided volume, and volume per void were analyzed. […]

[1] = aged Fischer 344 rats, oral 8-AG 5 mg/kg/day, 6 weeks
[2] = aged Fisher 344 rats, 8-AG 5 mg kg/day via drinking water, 1 month

In the case of `Nc1nc2[nH]c(N)nc2c(=O)[nH]1` [8-AG, 8-Aminoguanine], the voided volume [1] was “attenuates”, the voiding frequency [1] was “attenuates” and the “bladder abnormalities (voided volume, voiding efficiency, voiding frequency)” value [2] was “reversed”. The voided volume [2] was “attenuates”, the voiding frequency [2] was “attenuates” and the voiding frequency (aged rats, intravesical 100 μM 8-AG plus 10 μM DEA-NONOate, daily infusion 3-6 weeks, vs control aged rats) was “decreased; also recorded: attenuates”.
